Assay results published in paper PMC8353886 (ACS Medicinal Chemistry Letters, 2021).

Assays:
[1] = system: SARS-CoV-2 Spike pseudotyped particle (PP); test: microbe, parasite or virus in culture; assay type: cell-based; details: Severe acute respiratory syndrome coronavirus 2, read-out: SARS-CoV-2 PP IC50
[2] = system: MERS; details: cited from earlier work
[3] = system: SARS-CoV-1; details: cited from earlier work
[4] = system: SARS-CoV-2; details: in words; cited from earlier work

Row | Structure (SMILES) | IC50 [1] [µM] | inhibitory activity against MERS in the PP entry assay [2] | inhibitory activity against SARS-CoV-1 in the PP entry assay [3] | inhibitory activity against SARS-CoV-2 in the PP entry assay [4]
1 | CN1[C@@H]2CC[C@H]1C[C@@H](OC(c1ccccc1)c1ccc(Cl)cc1)C2 (stereo partly shown) [Clobenztropine] | 12.6 |  |  | 
2 | CN1CCN(C(c2ccccc2)c2ccc(Cl)cc2)CC1 (stereo not shown) [CCZ, chlorcyclizine] |  | inhibitory activities | inhibitory activities | inhibitory activities
